Biological target: T1, CXCR7 (Homo sapiens, UniProt P25106)
T1 construct: host or cells: CHO-K1 (PathHunter CHO-K1 CXCR7 b-arrestin cell line, stably transfected)
Test: PathHunter CHO-K1 CXCR7 b-arrestin recruitment assay (CXCR7 agonistic activity)
Format: cell-based
Details: PathHunter CHO-K1 CXCR7 b-arrestin cell line
Procedure, shortened: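 Stable CHO-K1 line with C-terminally ProLink-tagged CXCR7 and β-arrestin 2–EA fusion; β-arrestin recruitment restores β-gal activity, read by chemiluminescence after 1 h RT detection. Cells seeded 24 h, starved in OPTIMEM 3–4 h, exposed to compounds 90 min at 37 °C in HBSS/HEPES/BSA. Geometric-mean EC50 from repeated measurements.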

T1 sequence (P25106 whole entry): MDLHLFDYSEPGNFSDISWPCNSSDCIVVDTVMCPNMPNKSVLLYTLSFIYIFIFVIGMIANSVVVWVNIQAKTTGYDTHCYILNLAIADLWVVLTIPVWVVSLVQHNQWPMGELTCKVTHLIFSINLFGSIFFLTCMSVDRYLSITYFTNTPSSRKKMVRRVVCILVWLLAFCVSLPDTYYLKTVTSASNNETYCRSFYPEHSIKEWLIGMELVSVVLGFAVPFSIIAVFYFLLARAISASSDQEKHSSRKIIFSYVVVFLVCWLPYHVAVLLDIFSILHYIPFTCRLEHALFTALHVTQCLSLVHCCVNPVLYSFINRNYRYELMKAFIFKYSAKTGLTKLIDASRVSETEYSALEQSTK
T1 sequence (P32121 whole entry partner): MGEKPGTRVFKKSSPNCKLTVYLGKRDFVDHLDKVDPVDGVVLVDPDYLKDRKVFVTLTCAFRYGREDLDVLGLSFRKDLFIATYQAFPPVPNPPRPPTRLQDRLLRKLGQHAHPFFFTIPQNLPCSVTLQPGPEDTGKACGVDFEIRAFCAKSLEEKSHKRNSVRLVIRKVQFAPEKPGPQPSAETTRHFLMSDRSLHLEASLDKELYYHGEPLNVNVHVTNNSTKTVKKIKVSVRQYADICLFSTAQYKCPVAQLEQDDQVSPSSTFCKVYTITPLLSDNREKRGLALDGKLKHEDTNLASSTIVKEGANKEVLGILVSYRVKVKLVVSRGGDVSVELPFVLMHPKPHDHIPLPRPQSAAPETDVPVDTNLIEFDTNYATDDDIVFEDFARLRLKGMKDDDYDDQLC

In order of falling EC50:
1. COCCN1CCc2c(CCC(=O)N(Cc3ccccc3C(F)(F)F)CC(O)COC)cccc2C1 (centres unmarked) [Example 339, N-(2-Hydroxy-3-methoxy-propyl)-3-[2-(2-methoxy-ethyl)-1,2,3,4-tetrahydro-isoquinolin-5-yl]-N-(2-trifluoromethyl-benzyl)-propionamide]  457 nM
2. COCCN1CCc2c(/C=C/C(=O)N(CCN(C)C(=O)OC(C)(C)C)Cc3ccccc3C(F)(F)F)cccc2C1 [Example 319, {2-[{(E)-3-[2-(2-Methoxy-ethyl)-1,2,3,4-tetrahydro-isoquinolin-5-yl]-acryloyl}-(2-trifluoromethyl-benzyl)-amino]-ethyl}-methyl-carbamic acid tert-butyl ester]  443 nM
3. COCCN1CCc2c(CCC(=O)N(CCN(C)C(=O)OC(C)(C)C)Cc3ccccc3C(F)(F)F)cccc2C1 [Example 337, {2-[{3-[2-(2-Methoxy-ethyl)-1,2,3,4-tetrahydro-isoquinolin-5-yl]-propionyl}-(2-trifluoromethyl-benzyl)-amino]-ethyl}-methyl-carbamic acid tert-butyl ester]  429 nM
4. COCCN1CCc2c(CCC(=O)N(Cc3ccccc3C(F)(F)F)CC(C)(C)O)cccc2C1 [Example 341, N-(2-Hydroxy-2-methyl-propyl)-3-[2-(2-methoxy-ethyl)-1,2,3,4-tetrahydro-isoquinolin-5-yl]-N-(2-trifluoromethyl-benzyl)-propionamide]  397 nM
5. COCCN1CCc2c(/C=C/C(=O)N(Cc3ccccc3)C3CCS(=O)(=O)C3)cccc2C1 (centres unmarked) [Example 316, (E)-N-Benzyl-N-(1,1-dioxo-tetrahydro-1l6-thiophen-3-yl)-3-[2-(2-methoxy-ethyl)-1,2,3,4-tetrahydro-isoquinolin-5-yl]-acrylamide]  370 nM
6. COCCN1CCc2c(/C=C/C(=O)N(CCC(C)(C)O)Cc3ccccc3C(F)(F)F)cccc2C1 [Example 325, (E)-N-(3-Hydroxy-3-methyl-butyl)-3-[2-(2-methoxy-ethyl)-1,2,3,4-tetrahydro-isoquinolin-5-yl]-N-(2-trifluoromethyl-benzyl)-acrylamide]  334 nM
7. COCCN1CCc2c(/C=C/C(=O)N(Cc3ncccc3Cl)CC(C)(C)O)cccc2C1 [Example 328, (E)-N-(3-Chloro-pyridin-2-ylmethyl)-N-(2-hydroxy-2-methyl-propyl)-3-[2-(2-methoxy-ethyl)-1,2,3,4-tetrahydro-isoquinolin-5-yl]-acrylamide]  293 nM
8. COCCN1CCc2c(CCC(=O)N(CCC(C)(C)C)Cc3ncccc3C)cccc2C1 [Example 338, N-(3,3-Dimethyl-butyl)-3-[2-(2-methoxy-ethyl)-1,2,3,4-tetrahydro-isoquinolin-5-yl]-N-(3-methyl-pyridin-2-ylmethyl)-propionamide]  279 nM
9. COCCN1CCc2c(CCC(=O)N(CCN3CCC(F)(F)CC3)Cc3ncccc3C(F)(F)F)cccc2C1 [Example 340, N-[2-(4,4-Difluoro-piperidin-1-yl)-ethyl]-3-[2-(2-methoxy-ethyl)-1,2,3,4-tetrahydro-isoquinolin-5-yl]-N-(3-trifluoromethyl-pyridin-2-ylmethyl)-propionamide]  277 nM
10. COCCN1CCc2c(/C=C/C(=O)N(Cc3ccccc3C(F)(F)F)CC(O)COC)cccc2C1 (centres unmarked) [Example 321, (E)-N-(2-Hydroxy-3-methoxy-propyl)-3-[2-(2-methoxy-ethyl}-1,2,3,4-tetrahydro-isoquinolin-5-yl]-N-(2-trifluoromethyl-benzyl)-acrylamide]  244 nM
11. COCCN1CCc2c(/C=C/C(=O)N(Cc3ccccc3C(F)(F)F)CC3(C)COC3)cccc2C1 [Example 324, (E)-3-[2-(2-Methoxy-ethyl)-1,2,3,4-tetrahydro-isoquinolin-5-yl]-N-(3-methyl-oxetan-3-ylmethyl)-N-(2-trifluoromethyl-benzyl)-acrylamide]  243 nM
12. COCCN1CCc2c(/C=C/C(=O)N(CCN3CCC(F)(F)CC3)Cc3ncccc3Cl)cccc2C1 [Example 326, (E)-N-(3-Chloro-pyridin-2-ylmethyl)-N-[2-(4,4-difluoro-piperidin-1-yl)-ethyl]-3-[2-(2-methoxy-ethyl)-1,2,3,4-tetrahydro-isoquinolin-5-yl]-acrylamide]  184 nM
13. COCCN1CCc2c(/C=C/C(=O)N(Cc3ccccc3C(F)(F)F)CC(C)(C)O)cccc2C1 [Example 323, (E)-N-(2-Hydroxy-2-methyl-propyl)-3-[2-(2-methoxy-ethyl)-1,2,3,4-tetrahydro-isoquinolin-5-yl]-N-(2-trifluoromethyl-benzyl)-acrylamide]  182 nM
14. COCCN1CCc2c(/C=C/C(=O)N(CCC(C)(C)C)Cc3ncccc3C)cccc2C1 [Example 320, (E)-N-(3,3-Dimethyl-butyl)-3-[2-(2-methoxy-ethyl)-1,2,3,4-tetrahydro-isoquinolin-5-yl]-N-(3-methyl-pyridin-2-ylmethyl)-acrylamide]  154 nM
15. COCCN1CCc2c(/C=C/C(=O)N(CCN3CCC(F)(F)CC3)Cc3ncccc3C(F)(F)F)cccc2C1 [Example 322, (E)-N-[2-(4,4-Difluoro-piperidin-1-yl)-ethyl]-3-[2-(2-methoxy-ethyl)-1,2,3,4-tetrahydro-isoquinolin-5-yl]-N-(3-trifluoromethyl-pyridin-2-ylmethyl)-acrylamide]  119 nM
16. CCN1Cc2cccc(NCC(=O)N(CCN(C)C)Cc3ncccc3C(F)(F)F)c2CC1=O [Example 310, N-(2-Dimethylamino-ethyl)-2-(2-ethyl-3-oxo-1,2,3,4-tetrahydro-isoquinolin-5-ylamino)-N-(3-trifluoromethyl-pyridin-2-ylmethyl)-acetamide]  78 nM
17. COCCN1CCc2c(CCC(=O)N(CCN(C)C)Cc3ncccc3C(F)(F)F)cccc2C1 [Example 336, N-(2-Dimethylamino-ethyl)-3-[2-(2-methoxy-ethyl)-1,2,3,4-tetrahydro-isoquinolin-5-yl]-N-(3-trifluoromethyl-pyridin-2-ylmethyl)-propionamide]  47 nM
18. CC(C)CN1Cc2cccc(NCC(=O)N(CCN(C)C)Cc3ccccc3C(F)(F)F)c2CC1=O [Example 312, N-(2-Dimethylamino-ethyl)-2-(2-isobutyl-3-oxo-1,2,3,4-tetrahydro-isoquinolin-5-ylamino)-N-(2-trifluoromethyl-benzyl)-acetamide]  37 nM
19. CC(C)CN1Cc2cccc(NCC(=O)N(CCN(C)C)Cc3ncccc3C(F)(F)F)c2CC1=O [Example 313, N-(2-Dimethylamino-ethyl)-2-(2-isobutyl-3-oxo-1,2,3,4-tetrahydro-isoquinolin-5-ylamino)-N-(3-trifluoromethyl-pyridin-2-ylmethyl)-acetamide]  31 nM
20. CCN1Cc2cccc(NCC(=O)N(CCN3CCCC3)Cc3ccccc3C(F)(F)F)c2CC1=O [Example 311, 2-(2-Ethyl-3-oxo-1,2,3,4-tetrahydro-isoquinolin-5-ylamino)-N-(2-pyrrolidin-1-yl-ethyl)-N-(2-trifluoromethyl-benzyl)-acetamide]  24 nM
21. CC(C)CN1Cc2cccc(NCC(=O)N(CCN3CCCC3)Cc3ccccc3C(F)(F)F)c2CC1=O [Example 314, 2-(2-Isobutyl-3-oxo-1,2,3,4-tetrahydro-isoquinolin-5-ylamino)-N-(2-pyrrolidin-1-yl-ethyl)-N-(2-trifluoromethyl-benzyl)-acetamide]  23 nM
22. CC(C)(O)CN(Cc1ncccc1Cl)C(=O)/C=C/c1cccc2c1CCN(CC1CC1)C2 [Example 329, (E)-N-(3-Chloro-pyridin-2-ylmethyl)-3-(2-cyclopropylmethyl-1,2,3,4-tetrahydro-isoquinolin-5-yl)-N-(2-hydroxy-2-methyl-propyl)-acrylamide]  23 nM
23. COCCN1CCc2c(CCC(=O)N(CCN(C)C)Cc3ccccc3C(F)(F)F)cccc2C1 [Example 335, N-(2-Dimethylamino-ethyl)-3-[2-(2-methoxy-ethyl)-1,2,3,4-tetrahydro-isoquinolin-5-yl]-N-(2-trifluoromethyl-benzyl)-propionamide]  23 nM
24. COCCN1CCc2c(/C=C/C(=O)N(CCN(C)C)Cc3ncccc3Cl)cccc2C1 [Example 327, (E)-N-(3-Chloro-pyridin-2-ylmethyl)-N-(2-dimethylamino-ethyl)-3-[2-(2-methoxy-ethyl)-1,2,3,4-tetrahydro-isoquinolin-5-yl]-acrylamide]  20 nM
25. O=C(/C=C/c1cccc2c1CCN(CC1CC1)C2)N(CCN1CCC(F)(F)CC1)Cc1ncccc1Cl [Example 334, (E)-N-(3-Chloro-pyridin-2-ylmethyl)-3-(2-cyclopropylmethyl-1,2,3,4-tetrahydro-isoquinolin-5-yl)-N-[2-(4,4-difluoro-piperidin-1-yl)-ethyl]-acrylamide]  13 nM
26. COCCN1CCc2c(/C=C/C(=O)N(CCN(C)C)Cc3ncccc3C(F)(F)F)cccc2C1 [Example 318, (E)-N-(2-Dimethylamino-ethyl)-3-[2-(2-methoxy-ethyl)-1,2,3,4-tetrahydro-isoquinolin-5-yl]-N-(3-trifluoromethyl-pyridin-2-ylmethyl)-acrylamide]  7 nM
27. CN(C)CCN(Cc1ccccc1C(F)(F)F)C(=O)CNc1cccc2c1CCN(CC1CC1)C2=O [Example 315, 2-(2-Cyclopropylmethyl-1-oxo-1,2,3,4-tetrahydro-isoquinolin-5-ylamino)-N-(2-dimethylamino-ethyl)-N-(2-trifluoromethyl-benzyl)-acetamide]  5 nM
28. COCCN1CCc2c(/C=C/C(=O)N(CCN(C)C)Cc3ccccc3C(F)(F)F)cccc2C1 [Example 317, (E)-N-(2-Dimethylamino-ethyl)-3-[2-(2-methoxy-ethyl)-1,2,3,4-tetrahydro-isoquinolin-5-yl]-N-(2-trifluoromethyl-benzyl)-acrylamide]  5 nM
29. CN(C)CCN(Cc1ncccc1Cl)C(=O)/C=C/c1cccc2c1CCN(CC1CC1)C2 [Example 333, (E)-N-(3-Chloro-pyridin-2-ylmethyl)-3-(2-cyclopropylmethyl-1,2,3,4-tetrahydro-isoquinolin-5-yl)-N-(2-dimethylamino-ethyl)-acrylamide]  2 nM
